Laboratory results: patent publication US6734198B1, “Nematicidal trifluorobutenes” (Nihon Bayer Agrochem K.K., priority 1999, dated 2004)

What follows are compounds tested on Meloidogyne incognita (assay: Test against Meloidogyne spp., soil pot test (tomato)). Conditions: 10 ppm active ingredient in soil contaminated with Meloidogyne incognita; tomato (Kurihara) in pots, greenhouse, 4 weeks; from root knot index.
Format: in vivo
Procedure: Test Against Meloidogyne spp. Soil pot Test
Preparation of Test Agent:
1 Part of the active compound is impregnated to 99 parts of pumice to obtain fine granules.
The test agent prepared as mentioned above was added to soil contaminated with Meloidogyne incognita to a chemical concentration of 10 ppm and homogeneously mixed by stirring. A pot (1/5000 are) was filled with the soil. About 20 seeds of tomato (variety: Kurihara) were sown per pot. After cultivation in a greenhouse for 4 weeks, they were carefully pulled out not to damage the roots and the root knot index and the controlling effect were determined as follows.
Degree of damage 0: No knots were formed (Complete control).
1: A few knots were formed.
2: Knots were formed to a medium extent.
3: Knots were formed to an intense extent.
4: Knots were formed to the most intense extent (which corresponds to non-treatment). [formula]
The controlling effect of the compounds tested can then be evaluated according to the following equation: [formula]
The evaluation of the controlling effects of the compounds according to the present invention was done on the basis of the values of the controlling effect which can be obtained in the above-mentioned way and were connected with the following standards:
a: Controlling effect 100-71%
b: Controlling effect 70-50%
c: Controlling effect less than 50%
For `FC(F)=C(F)CCSc1ncc(Cl)s1` [Example 1, 5-chloro-2-(3,4,4-trifluoro-3-butenylthio)thiazole], the “Evaluation of controlling effect” value was “a (Controlling effect 100-71%)”.
With `[O-][S+](CCC(F)=C(F)F)c1ncc(Cl)s1` (stereo not drawn) [Example 2, 5-chloro-2-(3,4,4-trifluoro-3-butenylsulfinyl)thiazole] the “Evaluation of controlling effect” value was “a (Controlling effect 100-71%)”.
In the case of `O=S(=O)(CCC(F)=C(F)F)c1ncc(Cl)s1` [Example 3, 5-chloro-2-(3,4,4-trifluoro-3-butenylsulfonyl)thiazole], the “Evaluation of controlling effect” value is reported as “a (Controlling effect 100-71%)”.
